Results from patent publication US12162858B2, “Quinoline derivatives as inhibitors of AXL/MER RTK and CSF1R” (QURIENT CO., LTD., priority 2018, dated 2024).
pIC50: −log10 of the molar value.

target: CSF1R (Homo sapiens, UniProt P07333); test: Cellular CSF1R inhibition ELISA (p-CSF1R, M-CSF-induced) using THP-1 cells; format: cell-based; design: THP-1 cells act as a model for human monocytes; endogenous in cells; host or cells: THP-1
In short: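 THP-1 cells (2×10^5/well, RPMI/10% FBS) were treated with compound, 10 doses in 3-fold steps, for 24 h at 37 °C in 0.2% DMSO final. They were then stimulated 5 min with human M-CSF (10 ng/ml final) and lysed. p-CSF1R was read by sandwich ELISA (HRP/TMB), with a sigmoidal dose-response fit.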

Chain of CSF1R (P07333 20-972): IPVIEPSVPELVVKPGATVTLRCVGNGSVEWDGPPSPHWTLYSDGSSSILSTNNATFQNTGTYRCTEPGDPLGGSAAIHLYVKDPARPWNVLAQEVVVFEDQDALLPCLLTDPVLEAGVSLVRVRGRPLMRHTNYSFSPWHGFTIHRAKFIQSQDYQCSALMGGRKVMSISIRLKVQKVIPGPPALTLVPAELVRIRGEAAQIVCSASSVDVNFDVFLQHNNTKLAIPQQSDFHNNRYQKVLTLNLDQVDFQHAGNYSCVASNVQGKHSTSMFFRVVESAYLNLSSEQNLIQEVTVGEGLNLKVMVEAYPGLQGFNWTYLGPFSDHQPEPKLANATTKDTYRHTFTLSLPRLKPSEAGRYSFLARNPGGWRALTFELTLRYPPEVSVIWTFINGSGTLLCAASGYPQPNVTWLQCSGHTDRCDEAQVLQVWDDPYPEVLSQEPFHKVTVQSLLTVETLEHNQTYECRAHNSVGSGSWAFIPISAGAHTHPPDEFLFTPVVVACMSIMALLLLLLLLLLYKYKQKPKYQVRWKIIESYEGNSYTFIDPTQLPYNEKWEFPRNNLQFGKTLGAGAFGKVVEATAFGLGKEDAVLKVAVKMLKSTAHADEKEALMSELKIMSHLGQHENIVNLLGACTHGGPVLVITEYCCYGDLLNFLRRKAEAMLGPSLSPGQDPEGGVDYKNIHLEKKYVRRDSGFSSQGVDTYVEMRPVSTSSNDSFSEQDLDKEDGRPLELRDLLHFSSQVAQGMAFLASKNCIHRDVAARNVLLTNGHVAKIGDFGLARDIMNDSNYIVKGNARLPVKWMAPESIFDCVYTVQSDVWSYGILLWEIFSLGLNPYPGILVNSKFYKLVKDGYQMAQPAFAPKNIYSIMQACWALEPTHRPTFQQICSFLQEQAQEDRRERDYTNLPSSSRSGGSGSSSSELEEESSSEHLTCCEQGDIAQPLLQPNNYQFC

Compound | pIC50
COc1cc2nccc(Oc3ccc(NC(=O)c4nn(CCO)cc4OCC(F)(F)F)cc3F)c2cc1OC [Compound 51] | > 6.30
COc1cc2nccc(Oc3ccc(NC(=O)c4nn(C5CCNC5)cc4OCC(F)(F)F)nc3)c2cc1OC (centres unmarked) [Compound 70] | 6.00 to 6.30
COc1cc2nccc(Oc3ccc(NC(=O)c4nn(C5CCCC5)cc4OCC(F)(F)F)cc3C)c2cc1OC [Compound 57] | 6.00 to 6.30
COc1cc2nccc(Oc3ccc(NC(=O)c4nn(CC5CCNC5)cc4OCC(F)(F)F)nc3)c2cc1OC (centres unmarked) [Compound 72] | > 6.30
COc1cc2nccc(Oc3ccc(NC(=O)c4nn(C[C@H](C)O)cc4OCC(F)(F)F)nc3)c2cc1OC [Compound 30] | > 6.30
COc1cc2nccc(Oc3ccc(NC(=O)c4nc(CCC(F)(F)F)oc4CCC4CCC4)nc3)c2cc1OC [Compound 176] | ≤ 6.00
COc1cc2nccc(Oc3ccc(NC(=O)c4nn(C)cc4OCC(F)(F)F)nc3)c2cc1OC [Compound 33] | > 6.30
CCCn1cc(OCCF)c(C(=O)Nc2ccc(Oc3ccnc4cc(OC)c(OC)cc34)cn2)n1 [Compound 14] | > 6.30
COc1cc2nccc(Oc3ccc(NC(=O)c4nn(C5CCC5)cc4OCC(F)(F)F)nc3)c2cc1OC [Compound 24] | > 6.30
COCCn1cc(OCC(F)(F)F)c(C(=O)Nc2ccc(Oc3ccnc4cc(OC)c(OC)cc34)c(F)c2)n1 [Compound 54] | ≤ 6.00
COc1cc2nccc(Oc3ccc(NC(=O)c4nn(CC5CCN(C)C5)cc4OCC(F)(F)F)nc3)c2cc1OC (centres unmarked) [Compound 169] | > 6.30
CCC(=O)n1cc(OCC(F)(F)F)c(C(=O)Nc2ccc(Oc3ccnc4cc(OC)c(OC)cc34)cn2)n1 [Compound 20] | > 6.30
COc1cc2nccc(Oc3ccc(NC(=O)c4nn(CC(C)N)cc4OCC(F)(F)F)nc3)c2cc1OC (centres unmarked) [Compound 63] | 6.00 to 6.30

The remaining lines, values ahead:

pIC50 | Compound
> 6.30 | COc1cc2nccc(Oc3ccc(NC(=O)c4nn(CC5CC5)cc4OCC(F)(F)F)nc3)c2cc1OC [Compound 41]
> 6.30 | COc1cc2nccc(Oc3ccc(NC(=O)c4nn(C)cc4OCC(F)(F)F)cc3C)c2cc1OC [Compound 37]
> 6.30 | CCCn1cc(OCC(F)(F)F)c(C(=O)Nc2ccc(Oc3ccnc4cc(OC)c(OC)cc34)c(C)c2)n1 [Compound 26]
> 6.30 | COc1cc2nccc(Oc3ccc(NC(=O)c4nn(C5CCOC5)cc4OCC(F)(F)F)nc3)c2cc1OC (centres unmarked) [Compound 13]
≤ 6.00 | COc1cc2nccc(Oc3ccc(NC(=O)c4nn(CC(C)O)cc4OCC(F)(F)F)c(F)c3)c2cc1OC (centres unmarked) [Compound 76]
≤ 6.00 | COc1cc2nccc(Oc3ccc(NC(=O)c4nn(C5CCOC5)cc4OCC(F)(F)F)cc3F)c2cc1OC (centres unmarked) [Compound 55]
> 6.30 | COc1cc2nccc(Oc3ccc(NC(=O)c4sc(C5CC5)cc4OCC(F)(F)F)nc3)c2cc1OC [Compound 179]
> 6.30 | COc1cc2nccc(Oc3ccc(NC(=O)c4nn(C5COC5)cc4OCC(F)(F)F)nc3)c2cc1OC [Compound 66]
6.00 to 6.30 | COc1cc2nccc(Oc3ccc(NC(=O)c4nn(CC(C)C)cc4OCC(F)(F)F)c(F)c3)c2cc1OC [Compound 48]
≤ 6.00 | COc1cc2nccc(Oc3ccc(NC(=O)c4nn(CCC(F)(F)F)cc4OCC4CCC4)nc3)c2cc1OC [Compound 166]
> 6.30 | COc1cc2nccc(Oc3ccc(NC(=O)c4nn(CC(C)O)cc4OCC(F)F)nc3)c2cc1OC (centres unmarked) [Compound 175]
> 6.30 | COc1cc2nccc(Oc3ccc(NC(=O)c4nn(CCC#N)cc4OCC(F)(F)F)nc3)c2cc1OC [Compound 39]
> 6.30 | CCCn1cc(OCCC(F)(F)F)c(C(=O)Nc2ccc(Oc3ccnc4cc(OC)c(OC)cc34)cn2)n1 [Compound 31]
